Measurements reported in ChEMBL document CHEMBL5107995, “Novel difluoromethylated 1-(phenylsulfonyl)-4-(piperazin-1-yl)-1H-indole derivatives as potent 5-HT6 receptor antagonist with AMDE-improving properties: Design, synthesis, and biological evaluation” (Bioorg Med Chem, 2022).
Active and inactive are the calls of the source. The rule behind the calls is not given here.

Tests used:
[1] = Clearance in Sprague-Dawley rat at 2 mg/kg, iv measured for 24 hrs by LC-MS/MS analysis; format: ADME, organism-based; conditions: in vivo
[2] = AUC (0 to t) in Sprague-Dawley rat at 5 mg/kg, po measured for 24 hrs by LC-MS/MS analysis; format: ADME, organism-based; set-up: time 24 hrs, dose 5 mg/kg, route po; conditions: in vivo; for AUC(0-t) at 24 h: Sprague-Dawley
[3] = Half life in Sprague-Dawley rat at 2 mg/kg, iv measured for 24 hrs by LC-MS/MS analysis; format: ADME, organism-based; conditions: in vivo
[4] = Oral bioavailability in Sprague-Dawley rat at 5 mg/kg measured for 24 hrs by LC-MS/MS analysis; format: ADME, organism-based; conditions: in vivo; for bioavailability: Sprague-Dawley
[5] = Half life in Sprague-Dawley rat at 5 mg/kg, po measured for 24 hrs by LC-MS/MS analysis; format: ADME, organism-based; conditions: in vivo
[6] = Volume of distribution at steady state in Sprague-Dawley rat at 2 mg/kg, iv measured for 24 hrs by LC-MS/MS analysis; format: ADME, organism-based; conditions: in vivo, read-out: Vdss
[7] = Cmax in Sprague-Dawley rat at 5 mg/kg, po measured for 24 hrs by LC-MS/MS analysis; format: ADME, organism-based; set-up: time 24 hrs, dose 5 mg/kg, route po; conditions: in vivo
[8] = AUC (0 to t) in Sprague-Dawley rat at 2 mg/kg, iv measured for 24 hrs by LC-MS/MS analysis; format: ADME, organism-based; set-up: dose 2 mg/kg, time 24 hrs, route iv; conditions: in vivo; for AUC(0-t) at 24 h: Sprague-Dawley
[9] = Cmax in Sprague-Dawley rat at 2 mg/kg, iv measured for 24 hrs by LC-MS/MS analysis; format: ADME, organism-based; set-up: time 24 hrs, dose 2 mg/kg, route iv; conditions: in vivo
[10] = Drug concentration in Sprague-Dawley rat plasma at 1 mg/kg, iv measured after 45 mins by LC-MS/MS analysis; format: ADME, organism-based
[11] = Ratio of drug concentration in Sprague-Dawley rat brain to plasma at 1 mg/kg, iv measured after 15 mins by LC-MS/MS analysis; format: ADME, organism-based; conditions: brain and plasma, read-out: BPR
[12] = Drug concentration in Sprague-Dawley rat plasma at 1 mg/kg, iv measured after 75 mins by LC-MS/MS analysis; format: ADME, organism-based
[13] = Drug concentration in Sprague-Dawley rat plasma at 1 mg/kg, iv measured after 15 mins by LC-MS/MS analysis; format: ADME, organism-based
Mus musculus = assay: Cognitive enhancing effect in C57BL/6J mouse model of scopolamine-induced memory deficit assessed as reduction in incubation period of mouse entering into dark compartment at 10 mg/kg, ip pretreated for 30 mins followed by scopolamine addition and measured after 30 mins by step-through passive avoidance test; format: functional, organism-based; conditions: time 1.0 hrs
[14] = In vivo antagonist activity at 5-HT6R in Sprague-Dawley rat assessed as increase in intracerebral hippocampal acetylcholine level at 5 mg/kg, ip pretreated for 30 mins followed by donepezil addition and measured every 20 mins for 360 mins by LC-MS/MS analysis relative to control; format: functional; set-up: scale not given: the % may be the effect or the level left; conditions: time 390 min, 6.5 h
[15] = Drug concentration in Sprague-Dawley rat brain at 1 mg/kg, iv measured after 15 mins by LC-MS/MS analysis; format: ADME, organism-based; conditions: read-out: Ct
[16] = Ratio of drug concentration in Sprague-Dawley rat brain to plasma at 1 mg/kg, iv measured after 45 mins by LC-MS/MS analysis; format: ADME, organism-based; conditions: brain and plasma, read-out: BPR
[17] = Ratio of drug concentration in Sprague-Dawley rat brain to plasma at 1 mg/kg, iv measured after 75 mins by LC-MS/MS analysis; format: ADME, organism-based; conditions: brain and plasma, read-out: BPR
[18] = Drug concentration in Sprague-Dawley rat brain at 1 mg/kg, iv measured after 75 mins by LC-MS/MS analysis; format: ADME, organism-based; conditions: read-out: Ct
[19] = Drug concentration in Sprague-Dawley rat brain at 1 mg/kg, iv measured after 45 mins by LC-MS/MS analysis; format: ADME, organism-based; conditions: read-out: Ct
[20] = In vivo antagonist activity at 5-HT6R in Sprague-Dawley rat assessed as increase in intracerebral hippocampal acetylcholine level at 1.5 mg/kg, ip pretreated for 30 mins followed by donepezil addition and measured every 20 mins for 360 mins by LC-MS/MS analysis relative to control; format: functional; set-up: scale not given: the % may be the effect or the level left; conditions: time 390 min, 6.5 h
Rattus norvegicus = assay: Cognitive enhancing effect in Wistar rat model of scopolamine-induced cognitive impairment assessed as rescue of loss of preference for new object at 3 to 5 mg/kg, ip administered as single dose for 30 mins followed by scopolamine addition and measured after 30 mins by Novel object recognition assay; format: functional, organism-based; conditions: dose 3-5 mg/kg, time 1.0 hrs
[21] = target: 5-hydroxytryptamine receptor 6 (Homo sapiens, UniProt P50406); assay: Displacement of [3H]-LSD from human 5HT6 receptor expressed in CHO cells assessed as inhibition constant incubated for 120 mins by liquid scintillation counting analysis; format: cell-based
Chain of 5-hydroxytryptamine receptor 6 (P50406 whole entry): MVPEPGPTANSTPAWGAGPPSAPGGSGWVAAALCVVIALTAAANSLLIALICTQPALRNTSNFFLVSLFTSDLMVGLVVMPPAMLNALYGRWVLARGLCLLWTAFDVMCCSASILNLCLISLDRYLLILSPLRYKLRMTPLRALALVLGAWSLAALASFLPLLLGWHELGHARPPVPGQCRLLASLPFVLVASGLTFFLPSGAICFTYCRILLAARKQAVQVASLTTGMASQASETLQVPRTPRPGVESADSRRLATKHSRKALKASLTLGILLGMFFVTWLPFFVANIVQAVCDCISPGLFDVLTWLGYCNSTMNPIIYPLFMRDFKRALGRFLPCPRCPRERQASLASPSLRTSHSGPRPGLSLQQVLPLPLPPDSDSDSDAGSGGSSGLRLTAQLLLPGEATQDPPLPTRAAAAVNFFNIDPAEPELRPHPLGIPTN

clearance [1] [mL/min/kg] | AUC(0-t) at 24 h [2] [ng·h/mL] | half-life [3] [h] | bioavailability [4] [%] | half-life [5] [h] | Vd [6] [L/kg] | Cmax [7] [ng/mL] | AUC(0-t) at 24 h [8] [ng·h/mL] | Cmax [9] [ng/mL] | concentration at 0.75 h [10] [ng/mL] | Kp at 0.25 h [11] | concentration at 1.25 h [12] [ng/mL] | concentration at 0.25 h [13] [ng/mL] | concentration at 0.25 h [15] [ng/g] | Kp at 0.75 h [16] | Kp at 1.25 h [17] | concentration at 1.25 h [18] [ng/g] | concentration at 0.75 h [19] [ng/g] | Structure (SMILES) | other results
108 | 132 | 2.54 | 18.5 | 1.98 | 24 | 33.6 | 272 | 112 | – | – | – | – | – | – | – | – | – | O=S(=O)(c1ccccc1F)n1cc(C(F)F)c2c(N3CCNCC3)cccc21 | –
93.4 | 267 | 2.28 | 34.4 | 4.33 | 18.8 | 51.8 | 323 | 140 | 30.3 | 4.81 | 20.8 | 58.1 | 279 | 6.17 | 6.16 | 128 | 187 | O=S(=O)(c1cccc(F)c1)n1cc(C(F)F)c2c(N3CCNCC3)cccc21 | Activity (Mus musculus): Active; Activity [14]: 287%; Activity [20]: 235%; Activity (Rattus norvegicus): Active
82.8 | 348 | 4.46 | 37 | 4.39 | 26.6 | 44.1 | 306 | 200 | 127 | 0.94 | 69.6 | 434 | 406 | 2.37 | 3.21 | 224 | 302 | O=S(=O)(c1cccc(Cl)c1)n1cc(C(F)F)c2c(N3CCNCC3)cccc21 | –
123 | 162 | 2.55 | 29.5 | 3.01 | 25.8 | 33.6 | 242 | 120 | – | – | – | – | – | – | – | – | – | O=S(=O)(c1ccccc1Cl)n1cc(C(F)F)c2c(N3CCNCC3)cccc21 | –

Structure (SMILES) | clearance [1] [mL/min/kg] | AUC(0-t) at 24 h [2] [ng·h/mL] | half-life [3] [h] | bioavailability [4] [%] | half-life [5] [h] | Vd [6] [L/kg] | Cmax [7] [ng/mL] | AUC(0-t) at 24 h [8] [ng·h/mL] | Cmax [9] [ng/mL] | concentration at 0.75 h [10] [ng/mL] | Kp at 0.25 h [11] | concentration at 1.25 h [12] [ng/mL] | concentration at 0.25 h [13] [ng/mL] | concentration at 0.25 h [15] [ng/g] | Kp at 0.75 h [16] | Kp at 1.25 h [17] | concentration at 1.25 h [18] [ng/g] | concentration at 0.75 h [19] [ng/g] | other results
Cc1cn(S(=O)(=O)c2cccc(F)c2)c2cccc(N3CCNCC3)c12 | 63 | – | 1.4 | – | – | 6.7 | 3.61 | – | 159 | – | – | – | – | – | – | – | – | – | AUCt ([2]; 24 h): 9.37 ng·h/mL; F ([4]; po, 5 mg/kg, 24 h): 5.95%; Ki [21]: 0.51 nM; AUCt ([8]; 24 h): 254 ng·h/mL
